Results from PubChem BioAssay (NCI).
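Where inhibition never reached the appropriate level, the endpoint shown equals the highest concentration tested. Otherwise, values were interpolated linearly from a five-concentration, 48-hour dose response in 96-well plates. TGI: total growth inhibition.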

What was measured:
Assay in all cases: NCI-60 cell line screen, 48 h
HS 578T breast = tested on: HS 578T breast
CCRF-CEM leukemia = tested on: CCRF-CEM leukemia
NCI-H23 lung = tested on: NCI-H23 lung
HOP-62 NSCLC = tested on: HOP-62 NSCLC
MDA-MB-435 = tested on: MDA-MB-435
A549 NSCLC = tested on: A549 NSCLC
COLO 205 colon = tested on: COLO 205 colon
CAKI-1 renal = tested on: CAKI-1 renal
OVCAR-3 ovarian = tested on: OVCAR-3 ovarian
HCT-15 colon = tested on: HCT-15 colon
OVCAR-4 ovarian = tested on: OVCAR-4 ovarian
SF-539 CNS = tested on: SF-539 CNS
MALME-3M melanoma = tested on: MALME-3M melanoma
NCI-H460 lung = tested on: NCI-H460 lung
MOLT-4 leukemia = tested on: MOLT-4 leukemia
SR leukemia = tested on: SR leukemia
SF-295 CNS = tested on: SF-295 CNS
MDA-N = tested on: MDA-N
MDA-MB-231 breast = tested on: MDA-MB-231 breast
HT29 colon = tested on: HT29 colon
A498 renal = tested on: A498 renal
IGROV1 ovarian = tested on: IGROV1 ovarian
HCC-2998 colon = tested on: HCC-2998 colon
PC-3 prostate = tested on: PC-3 prostate
KM12 colon = tested on: KM12 colon
NCI-H226 lung = tested on: NCI-H226 lung
M14 melanoma = tested on: M14 melanoma
SK-OV-3 ovarian = tested on: SK-OV-3 ovarian
SK-MEL-5 melanoma = tested on: SK-MEL-5 melanoma
SNB-19 CNS = tested on: SNB-19 CNS
SF-268 CNS = tested on: SF-268 CNS
HCT-116 colon = tested on: HCT-116 colon
UO-31 renal = tested on: UO-31 renal
RXF 393 renal = tested on: RXF 393 renal
HL-60(TB) leukemia = tested on: HL-60(TB) leukemia
EKVX NSCLC = tested on: EKVX NSCLC
UACC-62 melanoma = tested on: UACC-62 melanoma
NCI/ADR-RES ovarian = tested on: NCI/ADR-RES ovarian
RPMI-8226 leukemia = tested on: RPMI-8226 leukemia
SK-MEL-28 melanoma = tested on: SK-MEL-28 melanoma
SW-620 colon = tested on: SW-620 colon
T-47D breast = tested on: T-47D breast
DU-145 prostate = tested on: DU-145 prostate
HOP-92 NSCLC = tested on: HOP-92 NSCLC
SN12C renal = tested on: SN12C renal
NCI-H522 lung = tested on: NCI-H522 lung
K-562 leukemia = tested on: K-562 leukemia
ACHN renal = tested on: ACHN renal
LOX IMVI melanoma = tested on: LOX IMVI melanoma
OVCAR-5 ovarian = tested on: OVCAR-5 ovarian
TK-10 renal = tested on: TK-10 renal
OVCAR-8 ovarian = tested on: OVCAR-8 ovarian
786-0 renal = tested on: 786-0 renal
U251 CNS = tested on: U251 CNS
UACC-257 melanoma = tested on: UACC-257 melanoma
SNB-75 CNS = tested on: SNB-75 CNS
MCF7 breast = tested on: MCF7 breast
SK-MEL-2 melanoma = tested on: SK-MEL-2 melanoma

CCCCOC(=O)NC(Nc1ccc(S(=O)(=O)Nc2ncccn2)cc1)(C(F)(F)F)C(F)(F)F
TGI (HS 578T breast): > 100 µM
TGI (CCRF-CEM leukemia): > 100 µM
TGI (NCI-H23 lung): > 100 µM
TGI (HOP-62 NSCLC): > 100 µM
TGI (MDA-MB-435): > 100 µM
TGI (A549 NSCLC): > 100 µM
TGI (COLO 205 colon): > 100 µM
TGI (CAKI-1 renal): > 100 µM
TGI (OVCAR-3 ovarian): > 100 µM
TGI (HCT-15 colon): > 100 µM
TGI (OVCAR-4 ovarian): > 100 µM
TGI (SF-539 CNS): > 100 µM
TGI (MALME-3M melanoma): > 100 µM
TGI (NCI-H460 lung): > 100 µM
TGI (MOLT-4 leukemia): > 100 µM
TGI (SR leukemia): > 100 µM
TGI (SF-295 CNS): > 100 µM
TGI (MDA-N): > 100 µM
TGI (MDA-MB-231 breast): > 100 µM
TGI (HT29 colon): > 100 µM
TGI (A498 renal): > 100 µM
TGI (IGROV1 ovarian): > 100 µM
TGI (HCC-2998 colon): 65.9 µM
TGI (PC-3 prostate): > 100 µM
TGI (KM12 colon): > 100 µM
TGI (NCI-H226 lung): > 100 µM
TGI (M14 melanoma): > 100 µM
TGI (SK-OV-3 ovarian): > 100 µM
TGI (SK-MEL-5 melanoma): > 100 µM
TGI (SNB-19 CNS): > 100 µM
TGI (SF-268 CNS): > 100 µM
TGI (HCT-116 colon): > 100 µM
TGI (UO-31 renal): 43.6 µM
TGI (RXF 393 renal): > 100 µM
TGI (HL-60(TB) leukemia): > 100 µM
TGI (EKVX NSCLC): > 100 µM
TGI (UACC-62 melanoma): > 100 µM
TGI (NCI/ADR-RES ovarian): > 100 µM
TGI (RPMI-8226 leukemia): > 100 µM
TGI (SK-MEL-28 melanoma): > 100 µM
TGI (SW-620 colon): > 100 µM
TGI (T-47D breast): > 100 µM
TGI (DU-145 prostate): > 100 µM
TGI (HOP-92 NSCLC): > 100 µM
TGI (SN12C renal): > 100 µM
TGI (NCI-H522 lung): > 100 µM
TGI (K-562 leukemia): > 100 µM
TGI (ACHN renal): > 100 µM
TGI (LOX IMVI melanoma): > 100 µM
TGI (OVCAR-5 ovarian): > 100 µM
TGI (TK-10 renal): > 100 µM
TGI (OVCAR-8 ovarian): > 100 µM
TGI (786-0 renal): > 100 µM

CC(C)COP(C)(=O)C(N)(C(F)(F)F)C(F)(F)F (stereo unspecified)
TGI (HS 578T breast): > 100 µM
TGI (CCRF-CEM leukemia): > 100 µM
TGI (NCI-H23 lung): > 100 µM
TGI (HOP-62 NSCLC): > 100 µM
TGI (MDA-MB-435): > 100 µM
TGI (A549 NSCLC): > 100 µM
TGI (COLO 205 colon): > 100 µM
TGI (CAKI-1 renal): > 100 µM
TGI (OVCAR-3 ovarian): > 100 µM
TGI (HCT-15 colon): > 100 µM
TGI (OVCAR-4 ovarian): > 100 µM
TGI (SF-539 CNS): > 100 µM
TGI (MALME-3M melanoma): > 100 µM
TGI (MOLT-4 leukemia): > 100 µM
TGI (SR leukemia): > 100 µM
TGI (SF-295 CNS): > 100 µM
TGI (MDA-N): > 100 µM
TGI (MDA-MB-231 breast): > 100 µM
TGI (HT29 colon): > 100 µM
TGI (U251 CNS): > 100 µM
TGI (IGROV1 ovarian): > 100 µM
TGI (HCC-2998 colon): > 100 µM
TGI (PC-3 prostate): > 100 µM
TGI (KM12 colon): > 100 µM
TGI (UACC-257 melanoma): > 100 µM
TGI (NCI-H226 lung): > 100 µM
TGI (M14 melanoma): > 100 µM
TGI (SK-OV-3 ovarian): > 100 µM
TGI (SK-MEL-5 melanoma): > 100 µM
TGI (SF-268 CNS): > 100 µM
TGI (HCT-116 colon): > 100 µM
TGI (UO-31 renal): > 100 µM
TGI (HL-60(TB) leukemia): > 100 µM
TGI (EKVX NSCLC): > 100 µM
TGI (UACC-62 melanoma): > 100 µM
TGI (NCI/ADR-RES ovarian): > 100 µM
TGI (SNB-75 CNS): > 100 µM
TGI (RPMI-8226 leukemia): > 100 µM
TGI (SK-MEL-28 melanoma): > 100 µM
TGI (SW-620 colon): > 100 µM
TGI (MCF7 breast): > 100 µM
TGI (T-47D breast): > 100 µM
TGI (DU-145 prostate): > 100 µM
TGI (HOP-92 NSCLC): > 100 µM
TGI (SN12C renal): > 100 µM
TGI (K-562 leukemia): > 100 µM
TGI (ACHN renal): > 100 µM
TGI (LOX IMVI melanoma): > 100 µM
TGI (SK-MEL-2 melanoma): > 100 µM
TGI (OVCAR-5 ovarian): > 100 µM
TGI (TK-10 renal): > 100 µM
TGI (OVCAR-8 ovarian): > 100 µM
TGI (786-0 renal): > 100 µM
